ChEMBL document CHEMBL1137564, “Substituted 2-pyrrolinone inhibitors of HIV-1 integrase” (Bioorg Med Chem Lett, 2007)

Columns and labels:
[1] = target: T1, Human immunodeficiency virus type 1 integrase (Human immunodeficiency virus 1, UniProt Q7ZJM1); assay: Inhibition of HIV1 integrase 3'-end processing activity
[2] = target: T1, Human immunodeficiency virus type 1 integrase; assay: Inhibition of HIV1 integrase strand transfer activity
[3] = target: Human immunodeficiency virus type 1 integrase (Human immunodeficiency virus 1) (UniProt Q7ZJM1); assay: Selectivity for HIV1 integrase strand transfer activity over 3'-end processing activity in presence of Mg2+
Chain of Human immunodeficiency virus type 1 integrase (Human immunodeficiency virus 1) (Q7ZJM1 as listed by the source): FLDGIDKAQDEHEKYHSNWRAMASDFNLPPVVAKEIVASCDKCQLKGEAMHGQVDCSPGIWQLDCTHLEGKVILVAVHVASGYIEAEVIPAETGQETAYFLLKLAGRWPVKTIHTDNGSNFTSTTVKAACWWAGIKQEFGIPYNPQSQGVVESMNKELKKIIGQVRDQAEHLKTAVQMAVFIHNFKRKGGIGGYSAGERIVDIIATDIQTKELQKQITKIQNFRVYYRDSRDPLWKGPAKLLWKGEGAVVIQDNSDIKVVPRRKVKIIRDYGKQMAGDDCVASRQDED

[4] = target: T1, Human immunodeficiency virus type 1 integrase; assay: Inhibition of HIV1 integrase 3'-end processing activity in presence of Mg2+
[5] = target: T1, Human immunodeficiency virus type 1 integrase; assay: Inhibition of HIV1 integrase strand transfer activity in presence of Mg2+

T1 sequence (Q7ZJM1 whole entry): as the sequence (Q7ZJM1 as listed by the source) above

Ratio IC50 [3]	SMILES	IC50 [1] [µM]	IC50 [2] [µM]	IC50 [4] [µM]	IC50 [5] [µM]
	O=C(C1=C(O)C(=O)N(c2nc3ccccc3s2)C1c1cccnc1)c1ccc(Cl)cc1 (stereo unspecified)	> 100	90		
	CCOc1ccc(C(=O)C2=C(O)C(=O)N(c3nccs3)C2c2ccc(O)c(OC)c2)cc1 (stereo unspecified)	57	30		
	COc1ccc(C2C(C(=O)c3ccc(Br)cc3)=C(O)C(=O)N2c2cccc(C(F)(F)F)c2)cc1OC (stereo unspecified)	47	26		
> 10	COc1ccc(OC)c(C(=O)C2=C(O)C(=O)N(CCCCCC(=O)O)C2c2ccc(Cl)cc2)c1 (stereo unspecified)	88	40	> 100	10
	CCOC(=O)c1sc(N2C(=O)C(O)=C(C(=O)c3ccc(C)cc3)C2c2ccc(F)cc2)nc1C (stereo unspecified)	> 100	33		
	COc1ccc(C(=O)C2=C(O)C(=O)N(CCc3ccccc3)C2c2ccc(Br)cc2)cc1OC (stereo unspecified)	60	42		
	CCOC(=O)c1sc(N2C(=O)C(O)=C(C(=O)c3ccccc3)C2c2ccc(F)cc2)nc1C (stereo unspecified)	44	21		
	Cc1ccc(C(=O)C2=C(O)C(=O)N(CCCn3ccnc3)C2c2ccc(Cl)cc2)cc1 (stereo unspecified)	93	67		
	CC(C)(C)c1ccc(C2C(C(=O)c3ccc(F)cc3)=C(O)C(=O)N2c2nncs2)cc1 (stereo unspecified)	64	43		
	CCOc1ccc(C(=O)C2=C(O)C(=O)N(c3nccs3)C2c2ccc(OC)cc2)cc1 (stereo unspecified)	> 100	90		
	Cc1ccc(C(=O)C2=C(O)C(=O)N(c3nccs3)C2c2ccc(F)cc2)cc1 (stereo unspecified)	> 100	78		
	CCOc1ccc(C(=O)C2=C(O)C(=O)N(c3nnc(C)s3)C2c2ccc(F)cc2)cc1 (stereo unspecified)	> 100	> 100		
	Cc1ccc(C(=O)C2=C(O)C(=O)N(c3ncc(S(=O)(=O)c4ccc([N+](=O)[O-])cc4)s3)C2c2cccc(Cl)c2)cc1 (stereo unspecified)	27	8	> 100	6.1
	O=C(C1=C(O)C(=O)N(c2nc3ccccc3s2)C1c1ccc2c(c1)OCO2)c1ccccc1 (stereo unspecified)	57	21		
	O=C(C1=C(O)C(=O)N(c2nc3ccccc3s2)C1c1ccccn1)c1ccc(Cl)cc1 (stereo unspecified)	> 100	83		
	Cc1ccc(C(=O)C2=C(O)C(=O)N(c3nccs3)C2c2ccc(Cl)cc2)cc1 (stereo unspecified)	56	39		
	Cc1ccc(C2C(C(=O)c3ccc(Cl)cc3)=C(O)C(=O)N2CC(=O)O)cc1 (stereo unspecified)	84	69		
	COc1ccc(C2C(C(=O)c3ccc(Br)cc3)=C(O)C(=O)N2c2cc(C(C)(C)C)on2)cc1OC (stereo unspecified)	45	43		
